Measured values published in ChEMBL document CHEMBL4325853, “Design, synthesis and antibacterial evaluation of 2,4-disubstituted-6-thiophenyl-pyrimidines” (Eur J Med Chem, 2019).
In brackets after ≈: the same amount, converted by molar mass. Activity calls are given as the source filed them. No cut-off for these calls is given here.

What was measured:
Bacillus subtilis = assay: Antibacterial activity against Bacillus subtilis 168 after 18 hrs by broth microdilution method; format: functional; conditions: subsp. subtilis str. 168, 18 h
Staphylococcus aureus [1] = assay: Antibacterial activity against Staphylococcus aureus ATCC 29213 after 18 hrs by broth microdilution method; format: functional; conditions: ATCC 29213, 18 h
Enterococcus faecium [2] = assay: Antibacterial activity against Enterococcus faecium ATCC 49624 after 18 hrs by broth microdilution method; format: functional; conditions: ATCC 49624, 18 h
Enterococcus faecium [3] = assay: Potency index, ratio of berberine MIC to test compound MIC for Enterococcus faecium ATCC 49624; format: functional
Enterococcus faecalis [4] = assay: Potency index, ratio of berberine MIC to test compound MIC for Enterococcus faecalis ATCC 29212; format: functional
[5] = test system: Staphylococcus epidermidis; assay: Potency index, ratio of berberine MIC to test compound MIC for Staphylococcus epidermidis ATCC 12228; format: functional
Staphylococcus aureus [6] = assay: Antibacterial activity against methicillin-resistant Staphylococcus aureus ATCC BAA1720 after 18 hrs by broth microdilution method; format: functional; conditions: ATCC BAA1720, 18 h
Staphylococcus aureus [7] = assay: Antibacterial activity against methicillin-resistant Staphylococcus aureus ATCC 43300 after 18 hrs by broth microdilution method; format: functional; conditions: ATCC 43300, 18 h
Enterococcus faecalis [8] = assay: Antibacterial activity against vancomycin-resistant Enterococcus faecalis ATCC 51575 after 18 hrs by broth microdilution method; format: functional; conditions: ATCC 51575, 18 h
Staphylococcus aureus [9] = assay: Potency index, ratio of methicillin MIC to test compound MIC for methicillin-resistant Staphylococcus aureus ATCC 33592; format: functional
Staphylococcus aureus [10] = assay: Antibacterial activity against methicillin-resistant Staphylococcus aureus isolate 7917 after 18 hrs by broth microdilution method; format: functional; conditions: isolate 7917, 18 h
Staphylococcus aureus [11] = assay: Antibacterial activity against methicillin-resistant Staphylococcus aureus isolate 3123 after 18 hrs by broth microdilution method; format: functional; conditions: isolate 3123, 18 h
Staphylococcus aureus [12] = assay: Antibacterial activity against methicillin-resistant Staphylococcus aureus isolate 7807 after 18 hrs by broth microdilution method; format: functional; conditions: isolate 7807, 18 h
Staphylococcus aureus [13] = assay: Antibacterial activity against methicillin-resistant Staphylococcus aureus isolate 2491 after 18 hrs by broth microdilution method; format: functional; conditions: isolate 2491, 18 h
Staphylococcus aureus [14] = assay: Antibacterial activity against methicillin-resistant Staphylococcus aureus isolate 2931 after 18 hrs by broth microdilution method; format: functional; conditions: isolate 2931, 18 h
Staphylococcus aureus [15] = assay: Antibacterial activity against methicillin-resistant Staphylococcus aureus isolate 7863 after 18 hrs by broth microdilution method; format: functional; conditions: isolate 7863, 18 h
Staphylococcus aureus [16] = assay: Antibacterial activity against methicillin-resistant Staphylococcus aureus isolate 7947 after 18 hrs by broth microdilution method; format: functional; conditions: isolate 7947, 18 h
Staphylococcus aureus [17] = assay: Antibacterial activity against methicillin-resistant Staphylococcus aureus isolate 7813 after 18 hrs by broth microdilution method; format: functional; conditions: isolate 7813, 18 h
Staphylococcus aureus [18] = assay: Antibacterial activity against methicillin-resistant Staphylococcus aureus isolate 7864 after 18 hrs by broth microdilution method; format: functional; conditions: isolate 7864, 18 h
Staphylococcus aureus [19] = assay: Antibacterial activity against methicillin-resistant Staphylococcus aureus isolate 1220 after 18 hrs by broth microdilution method; format: functional; conditions: isolate 1220, 18 h
Staphylococcus aureus [20] = assay: Antibacterial activity against methicillin-resistant Staphylococcus aureus isolate 8179 after 18 hrs by broth microdilution method; format: functional; conditions: isolate 8179, 18 h
Staphylococcus aureus [21] = assay: Antibacterial activity against methicillin-resistant Staphylococcus aureus isolate 4955 after 18 hrs by broth microdilution method; format: functional; conditions: isolate 4955, 18 h
Staphylococcus aureus [22] = assay: Antibacterial activity against methicillin-resistant Staphylococcus aureus isolate 7844 after 18 hrs by broth microdilution method; format: functional; conditions: isolate 7844, 18 h
Staphylococcus aureus [23] = assay: Antibacterial activity against methicillin-resistant Staphylococcus aureus isolate 5239 after 18 hrs by broth microdilution method; format: functional; conditions: isolate 5239, 18 h
Staphylococcus aureus [24] = assay: Antibacterial activity against methicillin-resistant Staphylococcus aureus isolate 2350 after 18 hrs by broth microdilution method; format: functional; conditions: isolate 2350, 18 h
Staphylococcus aureus [25] = assay: Antibacterial activity against methicillin-resistant Staphylococcus aureus isolate 7664 after 18 hrs by broth microdilution method; format: functional; conditions: isolate 7664, 18 h
Staphylococcus aureus [26] = assay: Antibacterial activity against methicillin-resistant Staphylococcus aureus isolate 4548 after 18 hrs by broth microdilution method; format: functional; conditions: isolate 4548, 18 h
Staphylococcus aureus [27] = assay: Antibacterial activity against methicillin-resistant Staphylococcus aureus isolate 5056 after 18 hrs by broth microdilution method; format: functional; conditions: isolate 5056, 18 h
Staphylococcus aureus [28] = assay: Antibacterial activity against methicillin-resistant Staphylococcus aureus isolate 7183 after 18 hrs by broth microdilution method; format: functional; conditions: isolate 7183, 18 h
Enterococcus faecalis [29] = assay: Bactericidal activity against vancomycin-resistant Enterococcus faecalis ATCC 700221 after 18 hrs by broth microdilution method; format: functional; conditions: ATCC 700221, 18 h
Staphylococcus aureus [30] = assay: Ratio of MBC to MIC for methicillin-resistant Staphylococcus aureus ATCC 43300; format: functional
[31] = target: T1, Cell division protein FtsZ (Staphylococcus aureus) (UniProt P0A031); assay: Inhibition of recombinant Staphylococcus aureus FtsZ polymerization at 8 ug/ml by 90 degree light scattering-based fluorescence spectrometric analysis
T1 sequence (whole entry): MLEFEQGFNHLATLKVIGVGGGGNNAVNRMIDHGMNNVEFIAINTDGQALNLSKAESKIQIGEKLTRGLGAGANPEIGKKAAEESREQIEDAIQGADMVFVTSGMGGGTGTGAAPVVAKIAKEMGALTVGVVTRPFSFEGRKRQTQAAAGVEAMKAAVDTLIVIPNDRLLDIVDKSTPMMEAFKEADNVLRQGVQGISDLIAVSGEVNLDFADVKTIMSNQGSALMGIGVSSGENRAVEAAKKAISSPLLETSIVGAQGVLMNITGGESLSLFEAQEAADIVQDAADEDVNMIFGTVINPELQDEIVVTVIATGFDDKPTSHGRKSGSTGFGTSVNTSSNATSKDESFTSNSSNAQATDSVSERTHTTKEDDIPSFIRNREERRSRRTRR

[32] = target: T1, Cell division protein FtsZ (Staphylococcus aureus); assay: Inhibition of recombinant Staphylococcus aureus FtsZ GTPase activity assessed as reduction in inorganic phosphate formation after 30 mins by colorimetric method
Staphylococcus aureus [33] = assay: Antibacterial activity against Staphylococcus aureus ATCC 29213 after 10 passages by broth microdilution method; format: functional, organism-based
Staphylococcus aureus [34] = assay: Ratio of MIC for Staphylococcus aureus ATCC 29213 after and before 11 to 21 serial passages; format: functional
[35] = Hemolytic activity against human erythrocytes measured after 1 hr; format: ADME, cell-based, Erythrocyte
[36] = Selectivity index, ratio of HC50 for human erythrocytes to MIC for methicillin-resistant Staphylococcus aureus ATCC BAA41; format: toxicity; conditions: read-out: Selectivity Index
[37] = Selectivity index, ratio of HC50 for human erythrocytes to MIC for methicillin-resistant Staphylococcus aureus ATCC BAA1720; format: toxicity; conditions: read-out: Selectivity Index
[38] = Selectivity index, ratio of HC50 for human erythrocytes to MIC for methicillin-resistant Staphylococcus aureus ATCC 33591; format: toxicity; conditions: read-out: Selectivity Index
[39] = Selectivity index, ratio of HC50 for human erythrocytes to MIC for methicillin-resistant Staphylococcus aureus ATCC 33592; format: toxicity; conditions: read-out: Selectivity Index
[40] = Selectivity index, ratio of HC50 for human erythrocytes to MIC for methicillin-resistant Staphylococcus aureus ATCC 43300; format: toxicity; conditions: read-out: Selectivity Index

CC(C)(C)c1ccc(CN2CCCN(CCc3cc(-c4cccs4)nc(-c4ccncc4)n3)CC2)cc1
MIC90 (Bacillus subtilis): 2 µg/mL (≈ 3.91 µM)
MIC90 (Staphylococcus aureus [1]): 2 µg/mL (≈ 3.91 µM)
MIC90 (Enterococcus faecium [2]): 4 µg/mL (≈ 7.82 µM)
Ratio (Enterococcus faecium [3]): 50 - 100
Ratio (Enterococcus faecalis [4]): 50 - 100
Ratio [5]: 50 - 100
MIC90 (Staphylococcus aureus [6]): 2 µg/mL (≈ 3.91 µM)
MIC90 (Staphylococcus aureus [7]): 2 µg/mL (≈ 3.91 µM)
MIC90 (Enterococcus faecalis [8]): 4 µg/mL (≈ 7.82 µM)
Ratio (Staphylococcus aureus [9]): >100
MIC90 (Staphylococcus aureus [10]): 2 µg/mL (≈ 3.91 µM)
MIC90 (Staphylococcus aureus [11]): 2 µg/mL (≈ 3.91 µM)
MIC90 (Staphylococcus aureus [12]): 2 µg/mL (≈ 3.91 µM)
MIC90 (Staphylococcus aureus [13]): 4 µg/mL (≈ 7.82 µM)
MIC90 (Staphylococcus aureus [14]): 2 µg/mL (≈ 3.91 µM)
MIC90 (Staphylococcus aureus [15]): 2 µg/mL (≈ 3.91 µM)
MIC90 (Staphylococcus aureus [16]): 2 µg/mL (≈ 3.91 µM)
MIC90 (Staphylococcus aureus [17]): 2 µg/mL (≈ 3.91 µM)
MIC90 (Staphylococcus aureus [18]): 2 µg/mL (≈ 3.91 µM)
MIC90 (Staphylococcus aureus [19]): 2 µg/mL (≈ 3.91 µM)
MIC90 (Staphylococcus aureus [20]): 2 µg/mL (≈ 3.91 µM)
MIC90 (Staphylococcus aureus [21]): 2 µg/mL (≈ 3.91 µM)
MIC90 (Staphylococcus aureus [22]): 2 µg/mL (≈ 3.91 µM)
MIC90 (Staphylococcus aureus [23]): 2 µg/mL (≈ 3.91 µM)
MIC90 (Staphylococcus aureus [24]): 2 µg/mL (≈ 3.91 µM)
MIC90 (Staphylococcus aureus [25]): 2 µg/mL (≈ 3.91 µM)
MIC90 (Staphylococcus aureus [26]): 2 µg/mL (≈ 3.91 µM)
MIC90 (Staphylococcus aureus [27]): 2 µg/mL (≈ 3.91 µM)
MIC90 (Staphylococcus aureus [28]): 2 µg/mL (≈ 3.91 µM)
MBC (Enterococcus faecalis [29]): 4 µg/mL (≈ 7.82 µM)
Ratio (Staphylococcus aureus [30]): 2
inhibition [31]: Active
inhibition [32]: Dose-dependent effect
Activity (Staphylococcus aureus [33]): Active
Activity (Staphylococcus aureus [34]): Active
HC50 at 1 h [35]: > 64 µg/mL
selectivity ratio [36]: > 32
selectivity ratio [37]: > 32
selectivity ratio [38]: > 32
selectivity ratio [39]: > 32
selectivity ratio [40]: > 32

COc1cccc(OC)c1C(=O)N[C@@H]1C(=O)N2[C@@H]1SC(C)(C)[C@@H]2C(=O)O [METHICILLIN]
MIC90 (Bacillus subtilis): 0.5 µg/mL (≈ 1.31 µM)
MIC90 (Staphylococcus aureus [1]): 1 µg/mL (≈ 2.63 µM)
MIC90 (Enterococcus faecium [2]): 4 µg/mL (≈ 10.5 µM)
MIC90 (Staphylococcus aureus [6]): > 192 µg/mL
MIC90 (Staphylococcus aureus [7]): > 192 µg/mL
MIC90 (Enterococcus faecalis [8]): 6 µg/mL (≈ 15.8 µM)
MIC90 (Staphylococcus aureus [10]): > 64 µg/mL
MIC90 (Staphylococcus aureus [11]): > 64 µg/mL
MIC90 (Staphylococcus aureus [12]): > 64 µg/mL
MIC90 (Staphylococcus aureus [13]): > 64 µg/mL
MIC90 (Staphylococcus aureus [14]): > 64 µg/mL
MIC90 (Staphylococcus aureus [15]): > 64 µg/mL
MIC90 (Staphylococcus aureus [16]): > 64 µg/mL
MIC90 (Staphylococcus aureus [17]): > 64 µg/mL
MIC90 (Staphylococcus aureus [18]): > 64 µg/mL
MIC90 (Staphylococcus aureus [19]): > 64 µg/mL
MIC90 (Staphylococcus aureus [20]): > 64 µg/mL
MIC90 (Staphylococcus aureus [21]): > 64 µg/mL
MIC90 (Staphylococcus aureus [22]): > 64 µg/mL
MIC90 (Staphylococcus aureus [23]): > 64 µg/mL
MIC90 (Staphylococcus aureus [24]): > 64 µg/mL
MIC90 (Staphylococcus aureus [25]): > 64 µg/mL
MIC90 (Staphylococcus aureus [26]): > 64 µg/mL
MIC90 (Staphylococcus aureus [27]): > 64 µg/mL
MIC90 (Staphylococcus aureus [28]): > 64 µg/mL
inhibition [31]: inactive
